Laboratory results published in patent publication US12479847B2 (DANA-FARBER CANCER INSTITUTE, INC., priority 2019, dated 2025).

Experiments:
Test in all cases: KINOMEscan (ScanMAX) kinase profiling
Format in all cases: binding
panel of 468 kinases [1] = biological target: T1, panel of 468 kinases (Homo sapiens, UniProt Q9H1R3); conditions: MYLK2; 1 μM; read-out: % control
T1 construct: purchased KINOMEscan (ScanMAX) service

panel of 468 kinases [2] = biological target: T2, panel of 468 kinases (Homo sapiens, UniProt O94804); conditions: LOK; 1 μM; read-out: % control
T2 construct: purchased KINOMEscan (ScanMAX) service

panel of 468 kinases [3] = biological target: T3, panel of 468 kinases (Homo sapiens, UniProt P0C264); conditions: SgK110; 1 μM; read-out: % control
T3 construct: purchased KINOMEscan (ScanMAX) service
T3 sequence (P0C264 1-359): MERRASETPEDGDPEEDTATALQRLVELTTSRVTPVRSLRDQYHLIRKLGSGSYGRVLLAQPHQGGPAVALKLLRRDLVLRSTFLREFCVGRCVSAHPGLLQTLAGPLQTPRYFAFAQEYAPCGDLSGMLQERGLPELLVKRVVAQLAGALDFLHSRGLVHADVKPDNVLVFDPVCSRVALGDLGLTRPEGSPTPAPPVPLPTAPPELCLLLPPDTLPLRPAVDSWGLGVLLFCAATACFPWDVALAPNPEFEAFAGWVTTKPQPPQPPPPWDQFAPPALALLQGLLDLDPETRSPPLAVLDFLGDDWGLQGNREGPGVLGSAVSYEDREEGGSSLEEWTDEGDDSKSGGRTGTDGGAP

panel of 468 kinases [4] = biological target: T4, panel of 468 kinases (Homo sapiens, UniProt Q13470); conditions: TNK1; 1 μM; read-out: % control
T4 construct: purchased KINOMEscan (ScanMAX) service
T4 sequence (Q13470 1-666): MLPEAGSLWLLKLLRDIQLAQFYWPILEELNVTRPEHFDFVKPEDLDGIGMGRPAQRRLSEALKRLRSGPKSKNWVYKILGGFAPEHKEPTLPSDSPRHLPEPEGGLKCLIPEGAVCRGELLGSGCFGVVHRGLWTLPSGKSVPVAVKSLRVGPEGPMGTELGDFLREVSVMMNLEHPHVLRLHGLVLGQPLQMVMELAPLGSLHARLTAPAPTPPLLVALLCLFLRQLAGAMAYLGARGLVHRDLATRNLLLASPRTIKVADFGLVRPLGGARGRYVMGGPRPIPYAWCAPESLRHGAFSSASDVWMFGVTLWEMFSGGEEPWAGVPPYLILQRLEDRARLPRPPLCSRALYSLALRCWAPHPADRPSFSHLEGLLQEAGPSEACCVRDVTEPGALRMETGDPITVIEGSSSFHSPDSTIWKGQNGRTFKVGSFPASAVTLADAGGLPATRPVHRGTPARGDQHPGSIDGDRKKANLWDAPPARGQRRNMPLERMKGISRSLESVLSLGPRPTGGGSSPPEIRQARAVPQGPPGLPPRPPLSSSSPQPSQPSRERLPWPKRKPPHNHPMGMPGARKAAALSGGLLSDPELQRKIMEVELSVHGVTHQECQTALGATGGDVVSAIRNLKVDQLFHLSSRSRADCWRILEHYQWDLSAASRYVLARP

panel of 468 kinases [5] = biological target: T5, panel of 468 kinases (Homo sapiens, UniProt P27361); conditions: ERK1; 1 μM; read-out: % control
T5 construct: purchased KINOMEscan (ScanMAX) service

panel of 468 kinases [6] = biological target: T6, panel of 468 kinases (Homo sapiens, UniProt Q8IY84); conditions: NIM1; 1 μM; read-out: % control
T6 construct: purchased KINOMEscan (ScanMAX) service

panel of 468 kinases [7] = biological target: T7, panel of 468 kinases (Homo sapiens, UniProt O75385); conditions: ULK1; 1 μM; read-out: % control
T7 construct: purchased KINOMEscan (ScanMAX) service
T7 sequence (O75385 1-1050): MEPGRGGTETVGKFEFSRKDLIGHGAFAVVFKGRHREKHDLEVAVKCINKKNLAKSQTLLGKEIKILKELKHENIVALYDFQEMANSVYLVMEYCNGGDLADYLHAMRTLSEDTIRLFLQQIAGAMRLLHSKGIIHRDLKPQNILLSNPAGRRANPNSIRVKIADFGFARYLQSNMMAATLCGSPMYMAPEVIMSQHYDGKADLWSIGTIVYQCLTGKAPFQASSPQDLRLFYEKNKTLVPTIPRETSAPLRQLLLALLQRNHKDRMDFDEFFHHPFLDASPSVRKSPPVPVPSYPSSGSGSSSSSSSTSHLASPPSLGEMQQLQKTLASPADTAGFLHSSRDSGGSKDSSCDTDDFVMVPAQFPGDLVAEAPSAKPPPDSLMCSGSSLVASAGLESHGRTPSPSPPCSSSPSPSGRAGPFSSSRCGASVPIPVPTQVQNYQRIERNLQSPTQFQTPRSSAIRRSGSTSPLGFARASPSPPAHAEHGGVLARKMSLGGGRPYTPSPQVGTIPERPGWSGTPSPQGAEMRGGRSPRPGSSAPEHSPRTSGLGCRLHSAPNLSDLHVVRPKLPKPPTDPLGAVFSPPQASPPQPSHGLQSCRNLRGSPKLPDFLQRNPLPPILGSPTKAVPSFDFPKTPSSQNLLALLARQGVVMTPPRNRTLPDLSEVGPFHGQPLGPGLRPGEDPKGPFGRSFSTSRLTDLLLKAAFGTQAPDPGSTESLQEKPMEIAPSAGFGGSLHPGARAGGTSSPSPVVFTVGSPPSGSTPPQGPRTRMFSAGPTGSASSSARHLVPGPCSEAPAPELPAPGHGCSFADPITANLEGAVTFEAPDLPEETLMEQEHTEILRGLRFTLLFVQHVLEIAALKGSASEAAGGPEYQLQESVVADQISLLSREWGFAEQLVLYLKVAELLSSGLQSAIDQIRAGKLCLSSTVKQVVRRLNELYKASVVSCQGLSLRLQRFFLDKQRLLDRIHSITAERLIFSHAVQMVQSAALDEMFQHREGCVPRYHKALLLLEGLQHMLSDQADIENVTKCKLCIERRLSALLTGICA

panel of 468 kinases [8] = biological target: T8, panel of 468 kinases (Homo sapiens, UniProt P07949, M918T); conditions: RET(M918T); 1 μM; read-out: % control
T8 construct: purchased KINOMEscan (ScanMAX) service

panel of 468 kinases [9] = biological target: T9, panel of 468 kinases (Homo sapiens, UniProt P19525); conditions: PRKR; 1 μM; read-out: % control
T9 construct: purchased KINOMEscan (ScanMAX) service
T9 sequence (P19525 whole entry): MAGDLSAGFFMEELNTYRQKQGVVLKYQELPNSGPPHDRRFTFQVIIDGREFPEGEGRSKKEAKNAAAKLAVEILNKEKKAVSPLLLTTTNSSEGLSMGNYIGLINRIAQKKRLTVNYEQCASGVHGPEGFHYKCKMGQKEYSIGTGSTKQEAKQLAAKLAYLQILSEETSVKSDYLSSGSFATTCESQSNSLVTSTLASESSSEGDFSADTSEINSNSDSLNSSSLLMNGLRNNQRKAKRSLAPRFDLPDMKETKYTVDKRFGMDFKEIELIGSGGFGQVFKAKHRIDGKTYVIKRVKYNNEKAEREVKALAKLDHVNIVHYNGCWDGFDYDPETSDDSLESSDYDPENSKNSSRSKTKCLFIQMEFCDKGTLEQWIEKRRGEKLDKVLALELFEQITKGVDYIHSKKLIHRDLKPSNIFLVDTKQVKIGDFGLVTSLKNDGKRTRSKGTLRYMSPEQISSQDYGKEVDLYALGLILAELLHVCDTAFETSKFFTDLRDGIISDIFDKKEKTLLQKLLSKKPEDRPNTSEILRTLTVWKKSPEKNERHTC

T5 sequence (P27361 whole entry): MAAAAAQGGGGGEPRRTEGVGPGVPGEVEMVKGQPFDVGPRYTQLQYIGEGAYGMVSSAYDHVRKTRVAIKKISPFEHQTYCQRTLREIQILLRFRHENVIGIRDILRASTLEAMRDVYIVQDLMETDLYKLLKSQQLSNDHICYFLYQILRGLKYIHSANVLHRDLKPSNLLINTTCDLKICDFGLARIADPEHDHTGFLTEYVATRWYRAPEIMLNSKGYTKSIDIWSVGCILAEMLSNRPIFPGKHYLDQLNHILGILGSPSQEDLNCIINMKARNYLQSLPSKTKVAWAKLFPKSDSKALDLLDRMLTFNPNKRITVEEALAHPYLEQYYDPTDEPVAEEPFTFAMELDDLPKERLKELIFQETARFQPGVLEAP
T8 sequence (P07949 29-1114 M918T): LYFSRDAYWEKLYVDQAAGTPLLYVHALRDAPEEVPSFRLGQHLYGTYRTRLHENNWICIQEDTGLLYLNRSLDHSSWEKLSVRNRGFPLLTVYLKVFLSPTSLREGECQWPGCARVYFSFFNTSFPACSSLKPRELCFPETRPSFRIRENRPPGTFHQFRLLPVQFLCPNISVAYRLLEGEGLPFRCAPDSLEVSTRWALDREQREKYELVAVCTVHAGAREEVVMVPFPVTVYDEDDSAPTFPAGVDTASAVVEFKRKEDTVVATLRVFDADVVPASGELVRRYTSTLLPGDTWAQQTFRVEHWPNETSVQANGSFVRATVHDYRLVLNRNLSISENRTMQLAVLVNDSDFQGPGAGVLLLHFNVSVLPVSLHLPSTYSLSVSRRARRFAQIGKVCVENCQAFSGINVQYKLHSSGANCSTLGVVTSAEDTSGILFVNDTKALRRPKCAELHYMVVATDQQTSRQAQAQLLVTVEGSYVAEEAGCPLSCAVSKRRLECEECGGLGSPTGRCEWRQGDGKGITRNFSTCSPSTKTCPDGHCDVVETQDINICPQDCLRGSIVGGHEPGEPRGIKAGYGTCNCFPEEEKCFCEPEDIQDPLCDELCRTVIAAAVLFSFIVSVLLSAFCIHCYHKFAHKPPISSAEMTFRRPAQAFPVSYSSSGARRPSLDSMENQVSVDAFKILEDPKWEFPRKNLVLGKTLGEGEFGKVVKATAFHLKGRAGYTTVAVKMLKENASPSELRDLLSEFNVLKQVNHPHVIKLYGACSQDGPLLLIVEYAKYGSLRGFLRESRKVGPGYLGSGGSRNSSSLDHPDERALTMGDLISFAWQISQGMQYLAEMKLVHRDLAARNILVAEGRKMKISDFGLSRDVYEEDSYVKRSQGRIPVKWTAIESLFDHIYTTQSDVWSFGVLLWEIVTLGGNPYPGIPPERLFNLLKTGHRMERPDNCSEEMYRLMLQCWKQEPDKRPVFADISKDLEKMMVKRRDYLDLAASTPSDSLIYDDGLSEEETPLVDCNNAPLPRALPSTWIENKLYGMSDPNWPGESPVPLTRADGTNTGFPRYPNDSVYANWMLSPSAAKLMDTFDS
T2 sequence (O94804 whole entry): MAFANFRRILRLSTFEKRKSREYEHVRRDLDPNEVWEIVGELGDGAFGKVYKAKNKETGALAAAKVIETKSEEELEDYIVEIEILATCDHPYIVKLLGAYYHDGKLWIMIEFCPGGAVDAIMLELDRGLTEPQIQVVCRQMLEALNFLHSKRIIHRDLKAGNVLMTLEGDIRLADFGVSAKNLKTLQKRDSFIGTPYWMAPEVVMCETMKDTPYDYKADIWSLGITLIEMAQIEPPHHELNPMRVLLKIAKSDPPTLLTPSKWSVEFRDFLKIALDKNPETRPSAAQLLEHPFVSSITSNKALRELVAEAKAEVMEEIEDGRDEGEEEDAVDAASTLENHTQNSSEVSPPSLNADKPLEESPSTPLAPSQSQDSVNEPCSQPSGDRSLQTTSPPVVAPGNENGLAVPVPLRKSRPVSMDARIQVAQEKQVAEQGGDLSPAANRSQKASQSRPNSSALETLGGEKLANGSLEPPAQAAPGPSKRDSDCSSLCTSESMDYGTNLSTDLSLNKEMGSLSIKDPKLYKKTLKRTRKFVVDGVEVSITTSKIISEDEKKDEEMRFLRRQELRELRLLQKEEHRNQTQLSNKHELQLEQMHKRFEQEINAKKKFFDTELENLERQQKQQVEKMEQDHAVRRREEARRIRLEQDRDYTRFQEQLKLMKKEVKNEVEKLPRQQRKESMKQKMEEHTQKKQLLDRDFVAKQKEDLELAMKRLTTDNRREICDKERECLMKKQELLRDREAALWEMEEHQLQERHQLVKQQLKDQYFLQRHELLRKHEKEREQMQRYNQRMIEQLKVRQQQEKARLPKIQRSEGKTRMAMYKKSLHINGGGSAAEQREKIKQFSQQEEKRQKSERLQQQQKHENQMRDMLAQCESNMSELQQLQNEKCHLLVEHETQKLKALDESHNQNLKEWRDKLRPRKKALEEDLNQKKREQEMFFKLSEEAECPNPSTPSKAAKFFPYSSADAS
T6 sequence (Q8IY84 whole entry): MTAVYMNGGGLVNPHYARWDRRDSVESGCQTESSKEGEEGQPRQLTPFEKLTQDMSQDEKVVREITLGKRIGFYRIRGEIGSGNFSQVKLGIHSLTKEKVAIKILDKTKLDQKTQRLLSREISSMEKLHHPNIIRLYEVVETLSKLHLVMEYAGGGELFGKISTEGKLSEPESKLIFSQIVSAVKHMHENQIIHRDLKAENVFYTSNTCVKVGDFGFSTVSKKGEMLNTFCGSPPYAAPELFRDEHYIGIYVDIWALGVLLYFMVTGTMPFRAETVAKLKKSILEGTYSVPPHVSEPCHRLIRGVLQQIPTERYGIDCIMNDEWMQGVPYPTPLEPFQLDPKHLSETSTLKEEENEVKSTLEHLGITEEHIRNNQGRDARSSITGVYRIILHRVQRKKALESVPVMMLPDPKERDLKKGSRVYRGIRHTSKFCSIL
T1 sequence (Q9H1R3 whole entry): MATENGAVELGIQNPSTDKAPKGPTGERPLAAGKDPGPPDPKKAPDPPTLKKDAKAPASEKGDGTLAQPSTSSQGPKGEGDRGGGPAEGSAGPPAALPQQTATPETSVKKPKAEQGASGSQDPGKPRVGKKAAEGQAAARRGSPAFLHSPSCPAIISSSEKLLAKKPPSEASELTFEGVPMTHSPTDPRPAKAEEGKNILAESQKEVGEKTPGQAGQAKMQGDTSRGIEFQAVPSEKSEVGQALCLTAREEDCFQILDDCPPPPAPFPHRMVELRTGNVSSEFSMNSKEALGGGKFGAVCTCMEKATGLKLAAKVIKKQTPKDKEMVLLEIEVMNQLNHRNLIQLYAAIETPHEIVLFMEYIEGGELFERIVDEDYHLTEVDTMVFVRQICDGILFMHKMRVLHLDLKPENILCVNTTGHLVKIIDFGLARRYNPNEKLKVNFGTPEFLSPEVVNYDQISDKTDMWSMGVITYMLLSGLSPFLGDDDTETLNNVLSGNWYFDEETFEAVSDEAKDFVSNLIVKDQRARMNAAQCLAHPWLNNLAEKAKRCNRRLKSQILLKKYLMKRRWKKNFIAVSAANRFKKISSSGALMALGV

Compound	remaining binding at 1 µM (panel of 468 kinases [1]) [%]	remaining binding at 1 µM (panel of 468 kinases [2]) [%]	remaining binding at 1 µM (panel of 468 kinases [3]) [%]	remaining binding at 1 µM (panel of 468 kinases [4]) [%]	remaining binding at 1 µM (panel of 468 kinases [5]) [%]	remaining binding at 1 µM (panel of 468 kinases [6]) [%]	remaining binding at 1 µM (panel of 468 kinases [7]) [%]	remaining binding at 1 µM (panel of 468 kinases [8]) [%]	remaining binding at 1 µM (panel of 468 kinases [9]) [%]
CNc1nc(Nc2ccc(C(=O)N3CCC(N4CCOCC4)CC3)c3c2OCO3)nc2[nH]cc(Cl)c12 [Compound 75, (7-((5-chloro-4-(methylamino)-7H-pyrrolo[2,3-d]pyrimidin-2-yl)amino)benzo[d][1,3]dioxol-4-yl)(4-morpholinopiperidin-1-yl)methanone]	86	96	100	100	100	73	50	90	100
CNc1nc(Nc2ccc(S(=O)(=O)N3CCC(N4CCOCC4)CC3)cc2OC)nc2[nH]cc(Cl)c12 [Compound 12, 5-chloro-N2-(2-methoxy-4-((4-morpholinopiperidin-1-yl)sulfonyl)phenyl)-N4-methyl-7H-pyrrolo[2,3-d]pyrimidine-2,4-diamine]	100	94	92	100	100	82	97	100	100
CNc1nc(Nc2ccc(P3(=O)CCN(C4CCOCC4)CC3)cc2OC)nc2[nH]cc(Cl)c12 [Compound 77, 4-(4-((5-chloro-4-(methylamino)-7H-pyrrolo[2,3-d]pyrimidin-2-yl)amino)-3-methoxyphenyl)-1-(tetrahydro-2H-pyran-4-yl)-1,4-azaphosphinane 4-oxide]	100	90	98	96	100	88	95	94	100
